The assay deals with Mycobacterium avium subsp. paratuberculosis. Kind of assay: Ability to act as growth factor for Mycobacterium paratuberculosis at 2.4 uM concentration, expressed as growth index. In kind it is functional, mycobacteria paratuberculosis.
The compound `O=C(CC(O)(CC(=O)NCCCCN(O)C(=O)/C=C/c1ccccc1)C(=O)O)NCCCCN(O)C(=O)/C=C/c1ccccc1` registered a GI of 1.5. To `CCCCC/C=C/C(=O)N(O)CCCNC(=O)CC(O)(CC(=O)NCCCN(O)C(=O)/C=C/CCCCC)C(=O)O` belongs 1; to `CC(=O)N(O)CCCCCNC(=O)CCC(=O)N(O)CCCCCNC(=O)CCC(=O)N(O)CCCCCN` [DEFEROXAMINE], 0.92. The figure for `COC(=O)[C@H](CCCCN(O)C(=O)/C=C/c1ccccc1)NC(=O)CC(O)(CC(=O)N[C@@H](CCCCN(O)C(=O)/C=C/c1ccccc1)C(=O)OC)C(=O)O` is 2.5; for `CC(C)(C)OC(=O)C(O)(CC(=O)NCCCN(O)C(=O)/C=C/c1ccccc1)CC(=O)NCCCN(O)C(=O)/C=C/c1ccccc1` it is 4.6; for `O=C(CC(O)(CC(=O)NCCCN(O)C(=O)/C=C/c1ccccc1)C(=O)O)NCCCN(O)C(=O)/C=C/c1ccccc1` it is 0.76. Consider `CCCCCCCCCCCCC/C=C/C(=O)N(O)CCCC[C@H](NC(=O)[C@@H]1COC(c2ccccc2O)=N1)C(=O)OC(C(C)C)C(C)C(=O)N[C@H]1CCCCN(O)C1=O` (some centres undefined), for which the GI was 1. The figure for `CCCCC/C=C/C(=O)N(O)CCCNC(=O)CC(O)(CC(=O)NCCCN(O)C(=O)/C=C/CCCCC)C(=O)OC(C)(C)C` is 0.69. The figure for `CCCCC/C=C/C(=O)N(O)CCCNC(=O)CC1(O)CC(=O)N(CCCN(O)C(=O)/C=C/CCCCC)C1=O` (centres undefined) is 4.6.
